The values that follow come from US10800782B2, “Inhibitors of cellular metabolic processes” (Agios Pharmaceuticals, Inc., priority 2016, dated 2020).

pIC50: −log10 of the molar value. Bounds are passed on as bounds.

In the assay the target is T1, MAT2A (Homo sapiens, UniProt P31153).
T1 construct: His6; made in house; host or cells: SF9 insect cells
T1 sequence (P31153 whole entry): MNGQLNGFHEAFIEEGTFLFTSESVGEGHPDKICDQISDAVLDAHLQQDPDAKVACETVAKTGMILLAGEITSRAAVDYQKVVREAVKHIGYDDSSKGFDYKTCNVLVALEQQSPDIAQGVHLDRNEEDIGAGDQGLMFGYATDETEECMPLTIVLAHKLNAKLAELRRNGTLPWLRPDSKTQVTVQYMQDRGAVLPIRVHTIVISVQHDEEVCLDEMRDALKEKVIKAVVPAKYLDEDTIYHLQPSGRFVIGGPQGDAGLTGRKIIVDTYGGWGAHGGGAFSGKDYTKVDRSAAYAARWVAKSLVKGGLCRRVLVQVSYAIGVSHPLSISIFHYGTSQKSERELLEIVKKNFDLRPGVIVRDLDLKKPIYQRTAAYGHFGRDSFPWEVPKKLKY
The assay can be described thus: MAT2A biochemical assay (colorimetric inorganic phosphate detection, PiColorLock). The conditions noted are these: recombinant His6-tagged MAT2A 1 μg/ml; 60 minutes preincubation at 25° C.; L-Met 80 μM, ATP 100 μM; 60 minutes reaction; read at 623 nm; read-out: MAT2A Inhibition Score. In a few lines: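 His6-tagged human MAT2A (SF9-expressed, 1 μg/ml) converting L-Met and ATP to SAM in Tris pH 8.0, 50 mM KCl, 15 mM MgCl2, 300 uM EDTA, 0.005% BSA; 60 min at room temperature. Released phosphate detected colorimetrically with malachite green phosphomolybdate. Ten-point, three-fold compound dilution series.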
As to `Cc1[nH]c2c(-c3ccccc3)c(-c3ccccc3)nn2c(=O)c1-c1ccc2ncncc2c1` [Compound 245, 5-methyl-2,3-diphenyl-6-(quinazolin-6-yl)pyrazolo[1,5-a]pyrimidin-7(4H)-one], the pIC50 was more than 7.00.

On to `Cc1[nH]c2c(-c3ccccc3)c(-c3ccccc3)nn2c(=O)c1-c1ccc2nc(C(=O)O)ccc2c1` [Compound 246, 6-(5-methyl-7-oxo-2,3-diphenyl-4,7-dihydropyrazolo[1,5-a]pyrimidin-6-yl) quinoline-2-carboxylic Acid], for which the pIC50 was more than 7.00.

Take `Cc1nc2ccc(-c3c(C)[nH]c4c(-c5ccccc5)c(-c5ccccc5)nn4c3=O)cc2cc1O` [Compound 247, 6-(3-hydroxy-2-methylquinolin-6-yl)-5-methyl-2,3-diphenylpyrazolo[1,5-a]pyrimidin-7(4H)-one]: the pIC50 was more than 7.00.

`COc1ccc(-c2c(CO)n(C)c3c(-c4ccccc4)c(-c4ccccc4)nn3c2=O)cc1` [Compound 249, 5-(hydroxymethyl)-6-(4-methoxyphenyl)-4-methyl-2,3-diphenylpyrazolo[1,5-a]pyrimidin-7(4H)-one]: the pIC50 is more than 7.00.

With `Cc1[nH]c2c(-c3ccccc3)c(-c3ccc(N)cc3)nn2c(=O)c1-c1ccc2ncccc2c1` [Compound 250, 2-(4-aminophenyl)-5-methyl-3-phenyl-6-(quinolin-6-yl)pyrazolo[1,5-a]pyrimidin-7(4H)-one], the pIC50 is more than 7.00.

Consider `Cc1[nH]c2c(-c3ccccc3)c(-c3ccc([N+](=O)[O-])cc3)nn2c(=O)c1-c1ccc2ncccc2c1` [Compound 251, 5-methyl-2-(4-nitrophenyl)-3-phenyl-6-(quinolin-6-yl)pyrazolo[1,5-a]pyrimidin-7(4H)-one], for which the pIC50 is 5.00 to 6.00.

Take `Cc1[nH]c2c(-c3ccccc3)c(-c3cc[nH]c3)nn2c(=O)c1-c1ccc2ncccc2c1` [Compound 252, 5-methyl-3-phenyl-2-(1H-pyrrol-3-yl)-6-(quinolin-6-yl)pyrazolo[1,5-a]pyrimidin-7(4H)-one]: the pIC50 is more than 7.00.

With `Cc1[nH]c2c(-c3ccccc3)c(-c3ccccc3)nn2c(=O)c1-c1ccc2nc(CN)sc2c1` [Compound 253, 6-(2-(aminomethyl)benzo[d]thiazol-6-yl)-5-methyl-2,3-diphenylpyrazolo[1,5-a]pyrimidin-7(4H)-one], the pIC50 was more than 7.00.

As for `COc1cnc2ccc(-c3c(C)[nH]c4c(-c5ccccc5)c(-c5ccccc5)nn4c3=O)cc2n1` [Compound 254, 6-(3-methoxy-quinoxalin-6-yl)-5-methyl-2,3-diphenylpyrazolo[1,5-a]-pyrimidin-7(4H)-one], the pIC50 is more than 7.00.

For `Cc1[nH]c2c(N3CCCCC3)c(-c3ccccc3)nn2c(=O)c1-c1ccc2nccnc2c1` [Compound 255, 5-methyl-2-phenyl-3-(piperidin-1-yl)-6-(quinoxalin-6-yl)pyrazolo[1,5-a]pyrimidin-7(4H)-one], the pIC50 is more than 7.00.

Consider `Cc1[nH]c2c(-c3ccccc3)c(-c3ccccc3)nn2c(=O)c1-c1ccc2ncn(C)c2c1` [Compound 256, 5-methyl-6-(1-methyl-1H-benzo[d]imidazol-6-yl)-2,3-diphenylpyrazolo[1,5-a]pyrimidin-7(4H)-one], for which the pIC50 is more than 7.00.

`Cc1[nH]c2c(-c3ccccc3)c(-c3ccccc3)nn2c(=O)c1-c1ccc2c(c1)NC(=O)CO2` [Compound 257, 6-(5-methyl-7-oxo-2,3-diphenyl-4,7-dihydropyrazolo[1,5-a]pyrimidin-6-yl)-2H-benzo[b][1,4]oxazin-3 (4H)-one]: the pIC50 is more than 7.00.

As to `Cc1[nH]c2c(-c3ccccc3)c(-c3ccccc3)nn2c(=O)c1-c1ccc2c(c1)NCCO2` [Compound 258, 6-(3,4-dihydro-2H-benzo[b][1,4]oxazin-6-yl)-5-methyl-2,3-diphenylpyrazolo[1,5-a]pyrimidin-7(4H)-one], the pIC50 is more than 7.00.

With `COc1cc(-c2c(C)[nH]c3c(-c4ccccc4)c(-c4ccccc4)nn3c2=O)ccc1O` [Compound 259, 6-(4-hydroxy-3-methoxyphenyl)-5-methyl-2,3-diphenylpyrazolo[1,5-a]pyrimidin-7(4H)-one], the pIC50 is more than 7.00.

For the compound `Cc1[nH]c2c(-c3ccccc3)c(-c3ccccc3)nn2c(=O)c1-c1ccc(O)c(O)c1` [Compound 260, 6-(3,4-dihydroxyphenyl)-5-methyl-2,3-diphenylpyrazolo[1,5-a]pyrimidin-7(4H)-one], the pIC50 is more than 7.00.

For `Cc1[nH]c2c(-c3ccccc3)c(-c3ccccc3)nn2c(=O)c1-c1ccc(O)c(OCCO)c1` [Compound 261, 6-(4-hydroxy-3-(2-hydroxyethoxy)phenyl)-5-methyl-2,3-diphenylpyrazolo[1,5-a]pyrimidin-7(4H)-one], the pIC50 is more than 7.00.

For the compound `Cc1[nH]c2c(N3CCCCC3)c(-c3ccccc3)nn2c(=O)c1-c1ccc(O)cc1` [Compound 262, 6-(4-hydroxyphenyl)-5-methyl-2-phenyl-3-(piperidin-1-yl)pyrazolo[1,5-a]pyrimidin-7(4H)-one], the pIC50 is more than 7.00.

As for `O=C(NCc1[nH]c2c(-c3ccccc3)c(-c3ccccc3)nn2c(=O)c1-c1ccc2ncccc2c1)C(F)(F)F` [Compound 263, 2,2,2-trifluoro-N-((7-oxo-2,3-diphenyl-6-(quinolin-6-yl)-4,7-dihydropyrazolo[1,5-a]pyrimidin-5-yl)methyl)acetamide], the pIC50 is more than 7.00.

`COc1ccc(-c2c(CNc3nc[nH]n3)[nH]c3c(-c4ccccc4)c(-c4ccccc4)nn3c2=O)cc1` [Compound 264, 5-(((1H-1,2,4-triazol-3-yl)amino)methyl)-6-(4-methoxyphenyl)-2,3-diphenylpyrazolo[1,5-a]pyrimidin-7(4H)-one]: the pIC50 is more than 7.00.

Turning to `Cc1[nH]c2c(C3=CCC(F)(F)CC3)c(-c3ccccc3)nn2c(=O)c1-c1ccc2ncccc2c1` [Compound 265, 3-(4,4-difluorocyclohex-1-en-1-yl)-5-methyl-2-phenyl-6-(quinolin-6-yl)pyrazolo[1,5-a]pyrimidin-7(4H)-one], the pIC50 is more than 7.00.

Regarding `Cc1[nH]c2c(N3CCCCC3)c(-c3ccccc3)nn2c(=O)c1-c1cn[nH]c1` [Compound 266, 5-methyl-2-phenyl-3-(piperidin-1-yl)-6-(1H-pyrazol-4-yl)pyrazolo[1,5-a]pyrimidin-7(4H)-one], the pIC50 was more than 7.00.

As for `Cc1[nH]c2c(N3CCCCC3)c(-c3ccccc3)nn2c(=O)c1-c1ccc2[nH]cnc2c1` [Compound 267, 6-(1H-benzo[d]imidazol-5-yl)-5-methyl-2-phenyl-3-(piperidin-1-yl)pyrazolo[1,5-a]pyrimidin-7(4H)-one], the pIC50 was more than 7.00.

As for `Cc1[nH]c2c(N3CCCCC3)c(-c3ccccc3)nn2c(=O)c1-c1ccc2[nH]c(N)nc2c1` [Compound 268, 6-(2-amino-1H-benzo[d]imidazol-5-yl)-5-methyl-2-phenyl-3-(piperidin-1-yl)pyrazolo[1,5-a]pyrimidin-7(4H)-one], the pIC50 was more than 7.00.

For `COc1ccc(-c2c(C)n(C)c3c(N4CCCCC4)c(-c4ccccc4)nn3c2=O)cc1` [Compound 269, 6-(4-methoxyphenyl)-4,5-dimethyl-2-phenyl-3-(piperidin-1-yl)pyrazolo[1,5-a]pyrimidin-7(4H)-one], the pIC50 was more than 7.00.

Regarding `Cc1c(-c2ccc(O)cc2)c(=O)n2nc(-c3ccccc3)c(-c3cccs3)c2n1C` [Compound 271, 6-(4-hydroxyphenyl)-4,5-dimethyl-2-phenyl-3-(thiophen-2-yl)pyrazolo[1,5-a]pyrimidin-7(4H)-one], the pIC50 was more than 7.00.

As to `COc1ccc(-c2c(C)[nH]c3c(N4CCC(F)(F)C4)c(-c4ccccc4)nn3c2=O)cc1` [Compound 272, 3-(3,3-difluoropyrrolidin-1-yl)-6-(4-methoxyphenyl)-5-methyl-2-phenylpyrazolo[1,5-a]pyrimidin-7(4H)-one], the pIC50 is more than 7.00.

`O=c1c(-c2ccc(O)cc2)c(O)[nH]c2c(-c3ccccc3)c(-c3ccccc3)nn12` [Compound 273, 5-hydroxy-6-(4-hydroxyphenyl)-2,3-diphenylpyrazolo[1,5-a]pyrimidin-7(4H)-one]: the pIC50 is more than 7.00.

On to `COc1ccc(-c2c(O)n(C)c3c(-c4ccccc4)c(-c4ccccc4)nn3c2=O)cc1` [Compound 274, 5-hydroxy-6-(4-methoxyphenyl)-4-methyl-2,3-diphenylpyrazolo[1,5-a]pyrimidin-7(4H)-one], for which the pIC50 is more than 7.00.

In the case of `O=c1c(-c2ccc3ncccc3c2)c(O)[nH]c2c(-c3ccccc3)c(-c3ccccc3)nn12` [Compound 275, 5-hydroxy-2,3-diphenyl-6-(quinolin-6-yl)pyrazolo[1,5-a]pyrimidin-7(4H)-one], the pIC50 is more than 7.00.

With `Nc1[nH]c2c(-c3ccccc3)c(-c3ccccc3)nn2c(=O)c1-c1ccc(O)cc1` [Compound 276, 5-amino-6-(4-hydroxyphenyl)-2,3-diphenylpyrazolo[1,5-a]pyrimidin-7(4H)-one], the pIC50 was more than 7.00.

Turning to `Cc1[nH]c2c(C3CCCCC3)c(-c3ccccc3)nn2c(=O)c1-c1ccc2ncccc2c1` [Compound 277, 3-cyclohexyl-5-methyl-2-phenyl-6-(quinolin-6-yl)pyrazolo[1,5-a]pyrimidin-7(4H)-one], the pIC50 is more than 7.00.

On to `CNCc1[nH]c2c(-c3ccccc3)c(-c3ccccc3)nn2c(=O)c1-c1ccc2ncccc2c1` [Compound 278, 5-((methylamino)methyl)-2,3-diphenyl-6-(quinolin-6-yl)pyrazolo[1,5-a]pyrimidin-7(4H)-one], for which the pIC50 is more than 7.00.

On to `COc1ccc(-c2c(O)[nH]c3c(C4=CCCCC4)c(-c4ccccc4)nn3c2=O)cc1` [Compound 279, 3-(cyclohex-1-en-1-yl)-5-hydroxy-6-(4-methoxyphenyl)-2-phenylpyrazolo[1,5-a]pyrimidin-7(4H)-one], for which the pIC50 is more than 7.00.
